The record followed here is ChEMBL document CHEMBL4483862, “Open-source discovery of chemical leads for next-generation chemoprotective antimalarials” (2018).

This test deals with Plasmodium berghei. The experiment in a line: Luciferase/luciferin-expressing antifolate-resistant parasites were used to infect a culture of HepG2 cells that were pre-incubated with compounds. Infected hepatocytes emit light due to the luciferase reaction. Assay results are presented as the percent inhibition of light emission compared to control. […]. In kind it is functional. Particulars: sporozoite; for IC90: read-out: LUCIFERASE INFECTION ASSAY - IC90.

Setting [1] is: read-out: LUCIFERASE INFECTION ASSAY - IC50.

Each structure is given as a SMILES string.

Regarding `COc1cc2c(cc1OC)C(c1ccccc1)N(CC(=O)Nc1c(C)cc(C)cc1Cl)CC2` (configuration not stated), the IC90 came out at 9.2 µM. Besides, the IC50 (HEPG2TOX_HILL_SLOPE 7.81, HEPG2TOX_R_SQUARED 0.408, PBLUC_HILL_SLOPE 9.86, PBLUC_R_SQUARED 0.196, read-out: LUCIFERASE INFECTION ASSAY - IC50) came out at 7.36 µM.

In the case of `CCNc1ccc(S(=O)(=O)C(F)(F)F)cc1NC(=O)/C=C/c1ccc(OC)c(OC)c1`, the 90% effect concentration (IC90) is > 10 µM. Besides, the IC50 (HEPG2TOX_HILL_SLOPE 1.67, 1.94, HEPG2TOX_R_SQUARED 0.906, 0.973, PBLUC_HILL_SLOPE 2.77, PBLUC_R_SQUARED 0.318, read-out: LUCIFERASE INFECTION ASSAY - IC50) was 7.07 µM.

As to `O=C(NC(=S)NN(Cc1ccccc1)c1ccccc1)C12CC3CC(CC(C3)C1)C2`, the IC90 was > 10 µM. The IC50 under setting [1] is > 10 µM.

Take `COc1ccc(Nc2cc(C)nc(-n3nc(C)cc3C)n2)cc1`: the IC90 came out at 4.19 µM. Moreover, for the setting “HEPG2TOX_HILL_SLOPE 0.695, HEPG2TOX_R_SQUARED 0.68, PBLUC_HILL_SLOPE 2.57, PBLUC_R_SQUARED 0.661, read-out: LUCIFERASE INFECTION ASSAY - IC50”, the IC50 was 1.78 µM.

`Nc1c(C(=O)CN2CCN(C(c3ccc(F)cc3)c3ccc(F)cc3)CC2)c(=O)[nH]c(=O)n1Cc1ccccc1`: the IC90 was > 10 µM. For the same compound, the IC50 under setting [1] was > 10 µM.

As to `CCN(CC(=O)Nc1ccccc1C(F)(F)F)C(=O)Cn1c(=O)cnc2ccccc21`, the IC90 is > 10 µM. Moreover, the IC50 under setting [1] was > 10 µM.

As to `COC(=O)c1cnc(Sc2ccc(C(F)(F)F)cn2)c([N+](=O)[O-])c1`, the IC90 is > 9.18 µM. The IC50 (HEPG2TOX_HILL_SLOPE 7.53, HEPG2TOX_R_SQUARED 0.667, PBLUC_HILL_SLOPE 5.12, PBLUC_R_SQUARED 0.221, read-out: LUCIFERASE INFECTION ASSAY - IC50) was > 9.18 µM.

As to `Cc1ccc(S(=O)(=O)CCC(=O)OCC(=O)NCC2CCCO2)cc1` (configuration not stated), the IC90 was > 10 µM. Besides, the IC50 under setting [1] was > 10 µM.

Consider `O=C1/C(=C\Nc2nnc(-c3ccccc3)c(-c3ccccc3)n2)c2ccccc2C(=O)N1c1cccc(C(F)(F)F)c1`, for which the IC90 was > 10 µM. Besides, the IC50 under setting [1] was > 10 µM.

For the compound `O=C(c1cn(-c2ccccc2)nc1-c1cccs1)N1c2ccccc2CCc2ccccc21`, the IC90 was > 10 µM. In addition, the IC50 (FFLUC_HILL_SLOPE 15.3, FFLUC_R_SQUARED 0.476, HEPG2TOX_HILL_SLOPE 1.99, HEPG2TOX_R_SQUARED 0.329, PBLUC_HILL_SLOPE 2.58, PBLUC_R_SQUARED 0.689, read-out: LUCIFERASE INFECTION ASSAY - IC50) came to 6.76 µM.

Consider `O=C(CN1CCN(Cc2nc3ccccc3s2)CC1)NN1C(=O)NC2(CCCCC2)C1=O`, for which the IC90 is > 10 µM. Moreover, under setting [1], the IC50 is > 10 µM.

On to `CCOC(=O)c1c(NC(=O)CNCc2ccccn2)sc(CC)c1C`, for which the 90% effect concentration (IC90) was 6.49 µM. The IC50 (HEPG2TOX_HILL_SLOPE 2.14, HEPG2TOX_R_SQUARED 0.831, PBLUC_HILL_SLOPE 2.51, PBLUC_R_SQUARED 0.552, read-out: LUCIFERASE INFECTION ASSAY - IC50) came to 2.7 µM.

In the case of `COc1ncccc1C(=O)NNC(=O)c1nc(-c2ccccc2)n(-c2ccccc2)n1`, the IC90 was determined as 3.43 µM. In addition, the IC50 (HEPG2TOX_HILL_SLOPE 3.74, HEPG2TOX_R_SQUARED 0.853, PBLUC_HILL_SLOPE 83.7, PBLUC_R_SQUARED 0.266, read-out: LUCIFERASE INFECTION ASSAY - IC50) worked out at 3.34 µM.

On to `Cc1nc(NCc2ccc(Cl)cc2)c2cc(-c3ccccc3)sc2n1`, for which the concentration for an effect of 90% (IC90) is > 10 µM. The concentration for half-maximal inhibition (IC50) (HEPG2TOX_HILL_SLOPE 0.0996, HEPG2TOX_R_SQUARED 0.0438, PBLUC_HILL_SLOPE 16.2, PBLUC_R_SQUARED 0.0193, read-out: LUCIFERASE INFECTION ASSAY - IC50) was found to be 9.43 µM.

In the case of `COc1ccc(-n2c(C)cc(C(=O)Cn3ncc(Cl)c(Cl)c3=O)c2C)cc1`, the IC90 is > 10 µM. Further, the IC50 (HEPG2TOX_HILL_SLOPE 0.989, HEPG2TOX_R_SQUARED 0.688, read-out: LUCIFERASE INFECTION ASSAY - IC50) is > 10 µM.

On to `COCCN(Cc1nc(=O)c2ccccc2[nH]1)C(=O)c1cc(C(C)(C)C)cc(C(C)(C)C)c1O`, for which the IC90 is > 10 µM. Besides, the IC50 under setting [1] is > 10 µM.

Regarding `CCOC(=O)NC(=O)/C(C#N)=N/Nc1ccccc1`, the IC90 amounted to 0.557 µM. Moreover, the concentration for half-maximal inhibition (IC50) (PBLUC_HILL_SLOPE 2.22, PBLUC_R_SQUARED 0.599, read-out: LUCIFERASE INFECTION ASSAY - IC50) was 0.207 µM.

On to `COc1ccc(CNc2ccc3ncc(-c4ccc(Cl)cc4)n3n2)cc1`, for which the IC90 was determined as 4.67 µM. For the same compound, for the setting “HEPG2TOX_HILL_SLOPE 3.82, HEPG2TOX_R_SQUARED 0.951, PBLUC_HILL_SLOPE 9.74, PBLUC_R_SQUARED 0.491, read-out: LUCIFERASE INFECTION ASSAY - IC50”, the IC50 was determined as 3.73 µM.

Turning to `C/N=c1\scc(-c2ccc(OC(F)F)cc2)n1/N=C/c1cccs1`, the IC90 amounted to 2.72 µM. Also, the concentration for half-maximal inhibition (IC50) (FFLUC_HILL_SLOPE 2.65, FFLUC_R_SQUARED 0.0605, PBLUC_HILL_SLOPE 1.58, PBLUC_R_SQUARED 0.688, read-out: LUCIFERASE INFECTION ASSAY - IC50) was 0.676 µM.

For the compound `Cc1cc(NC(=O)c2cc(C(C)(C)C)oc2C)nc(C)n1`, the IC90 was > 11.5 µM. The IC50 under setting [1] was > 11.5 µM.

Consider `CN(Cc1ccc2c(c1)OCO2)c1cnn(-c2nc3ccccc3[nH]2)c(=O)c1Cl`, for which the IC90 was determined as 3.94 µM. Moreover, where the note is “HEPG2TOX_HILL_SLOPE 3.37, 11.7, HEPG2TOX_R_SQUARED 0.995, 0.503, PBLUC_HILL_SLOPE 3.37, 1.13, PBLUC_R_SQUARED 0.633, 0.779, read-out: LUCIFERASE INFECTION ASSAY - IC50”, the IC50 came to 0.948 µM.

Turning to `Cc1ccc(Sc2ncnc3sccc23)cc1`, the IC90 is > 12.8 µM. Besides, under setting [1], the IC50 is > 12.8 µM.

`COc1ccccc1NC(=O)/C=c1\s/c(=C\c2ccc(-c3ccccc3F)o2)c(=O)n1C`: the IC90 amounted to 3.75 µM. Moreover, for the setting “HEPG2TOX_HILL_SLOPE 2.21, HEPG2TOX_R_SQUARED 0.937, PBLUC_HILL_SLOPE 21.9, PBLUC_R_SQUARED 0.468, read-out: LUCIFERASE INFECTION ASSAY - IC50”, the IC50 was 3.39 µM.

For the compound `Cc1onc(-c2ccccc2)c1C(=O)NCC1COCCO1` (configuration not stated), the 90% effect concentration (IC90) was > 10 µM. Further, the concentration for half-maximal inhibition (IC50) under setting [1] was > 10 µM.

In the case of `CCc1c(C)sc(NC(=O)c2c(-c3ccccc3)noc2C)c1C(=O)OC`, the IC90 is > 8.58 µM. Moreover, the IC50 (PBLUC_HILL_SLOPE 4.81, PBLUC_R_SQUARED 0.194, read-out: LUCIFERASE INFECTION ASSAY - IC50) is 5.61 µM.

As to `Cc1c(S(=O)(=O)c2ccc(Cl)cc2)csc1C(=O)Nc1ccccc1Cl`, the IC90 is > 7.74 µM. Also, under “FFLUC_HILL_SLOPE 0.988, FFLUC_R_SQUARED 0.0286, PBLUC_HILL_SLOPE 1.65, PBLUC_R_SQUARED 0.324, read-out: LUCIFERASE INFECTION ASSAY - IC50”, the IC50 is 6.99 µM.

With `Cc1cc([N+](=O)[O-])cc(S(=O)(=O)N(C)Cc2ccc(C(=O)NC3CC3)cc2)c1C`, the IC90 was 6.84 µM. The IC50 (FFLUC_HILL_SLOPE 30.1, FFLUC_R_SQUARED 0.449, PBLUC_HILL_SLOPE 4.67, PBLUC_R_SQUARED 0.152, read-out: LUCIFERASE INFECTION ASSAY - IC50) is 4.27 µM.

As to `COc1nc2c(c(-c3ccc(SC)cc3)c1C#N)Cc1ccccc1-2`, the IC90 is > 9.58 µM. In addition, for the setting “HEPG2TOX_HILL_SLOPE 1.73, HEPG2TOX_R_SQUARED 0.894, PBLUC_HILL_SLOPE 2.49, PBLUC_R_SQUARED 0.21, read-out: LUCIFERASE INFECTION ASSAY - IC50”, the IC50 was determined as 5.33 µM.

With `CC1=CC(=O)N(c2ccc(F)c(Cl)c2)C1=O`, the IC90 is > 13.8 µM. Under “HEPG2TOX_HILL_SLOPE 6.55, HEPG2TOX_R_SQUARED 0.196, PBLUC_HILL_SLOPE 2.8, PBLUC_R_SQUARED 0.561, read-out: LUCIFERASE INFECTION ASSAY - IC50”, the IC50 was 8.94 µM.

On to `S=C(NCc1ccccc1)N/N=C1/CCCCC1C1CCCCC1` (configuration not stated), for which the concentration for an effect of 90% (IC90) was > 10 µM. Besides, the IC50 under setting [1] was > 10 µM.

Take `COc1ccc(CNc2nc(C)nc3scc(-c4ccccc4)c23)cc1`: the IC90 was determined as 6.87 µM. The half-inhibitory concentration (IC50) (FFLUC_HILL_SLOPE 0.195, FFLUC_R_SQUARED 0.119, HEPG2TOX_HILL_SLOPE 2.5, HEPG2TOX_R_SQUARED 0.976, PBLUC_HILL_SLOPE 4.55, PBLUC_R_SQUARED 0.142, read-out: LUCIFERASE INFECTION ASSAY - IC50) was determined as 4.24 µM.

`N#CCCN(C(=O)COC(=O)c1ccc2c(c1)NC(=O)CS2)c1ccc2c(c1)OCCO2`: the IC90 is > 10 µM. Moreover, under setting [1], the IC50 is > 10 µM.

With `C=CCc1ccccc1OCCn1c(C2CC(=O)N(Cc3ccc(F)cc3)C2)nc2ccccc21` (configuration not stated), the IC90 was > 10 µM. Moreover, the IC50 (FFLUC_HILL_SLOPE 11.3, FFLUC_R_SQUARED 0.11, read-out: LUCIFERASE INFECTION ASSAY - IC50) is > 10 µM.

Regarding `OCc1ccc(-c2cnc3ccc(-c4cccc(C(F)(F)F)c4)nn23)cc1`, the IC90 was > 10 µM. Also, under setting [1], the IC50 was > 10 µM.

Regarding `Cn1c(N)c(C(=O)COC(=O)c2cc(-c3ccccc3)nc3ccc(Br)cc23)c(=O)n(C)c1=O`, the IC90 is > 10 µM. The IC50 under setting [1] is > 10 µM.

In the case of `O=c1c(-c2ccc(Cl)cc2)c[nH]n1-c1cccc(C(F)(F)F)c1`, the IC90 was > 9.74 µM. Further, the half-maximal inhibitory concentration (IC50) (FFLUC_HILL_SLOPE 17.4, FFLUC_R_SQUARED 0.432, HEPG2TOX_HILL_SLOPE 8.27, HEPG2TOX_R_SQUARED 0.828, PBLUC_HILL_SLOPE 3.62, PBLUC_R_SQUARED 0.841, read-out: LUCIFERASE INFECTION ASSAY - IC50) is 5.59 µM.
